Test results as given in patent publication US9670223B2, “Compounds with super-aspirin effects” (SOLVOTRIN THERAPEUTICS LTD., priority 2011, dated 2017).
Entries after “also recorded” stand apart in the source; their conditions may differ.

Experiments:
[1] = tested on: platelets; settings: literature, cited from earlier work
[2] = tested on: washed platelets (WP); experiment: Collagen-induced platelet aggregation in washed platelets (light aggregometry); type: cell-based, human; design: IC50: unit of the concentration uncertain
Protocol: (§1) PRP and WP (2.5×10^8 platelets ml^−1) were prepared from blood. Briefly 36 ml whole blood was collected into 4 ml of 3.15% sodium citrate; this was centrifuged at 250 ¥g for 20 min (with gentle acceleration and deceleration). At this point PRP, which had separated from white blood cells and red blood cells, was gently removed. When WP were required this PRP was centrifuged at 700 g for 10 min (with gentle acceleration and deceleration) in the presence of prostacyclin. The platelet-poor plasma (PPP) was removed and the platelet pellet was washed three times with Tyrode's buffer, before being re-suspended in Tyrode's buffer to a concentration of 2.5 ¥108 platelets/ml.
(§2) Platelet aggregation was measured by light aggregometry. […] Aggregation was initiated by the addition of agonists, and monitored by Aggro-Link software for at least 6 min.
(§3) To study the aggregatory potency of ADP, the concentration-response (0.3-10 μM) curves were generated. Collagen at different concentrations (2-5 μg/ml) was also used to induce platelet aggregation. Submaximal concentrations of agonists, i.e. the concentrations that gave approximately 95% of the maximal aggregation were used to study the effects of inhibitors of aggregation. Aspirin and aspirin prodrugs was incubated for various intervals prior to the addition of aggregating agents.
To study the involvement of plasma BuChE in the activation of ST0701, purified BuChE (3 U/ml) was incubated with WP for 5 min in the aggregometer with stirring at 900 r.p.m. before the addition of the test compounds ST0701 which was incubated with the WP for a further 10 min, prior to the addition of collagen (5 ug/ml).
(§4) Eserine (in DMSO, 10 μM, giving a final concentration≦0.25% DMSO, which pilot studies had determined not to affect platelet aggregation) was preincubated with PRP or WP for 5 min in the aggregometer with stirring at 900 r.p.m. before the addition of test compounds (ST0701-05), which were incubated in PRP or WP for a further 10 min prior to the addition of an agonist (10 μM ADP or 5 μg/ml Collagen) to induce platelet aggregation.
Phenylmethylsulphonylfluoride (PMSF) 20, 50 and 100 μM dissolved in EtOH (<0.2% EtOH, which pilot studies had determined not to affect platelet aggregation) was preincubated in WP in the aggregometer for 5 min with stirring at 900 r.p.m. before the addition of test compound ST0702 to the WP, which was further incubated for 10 min prior to the addition of collagen (2 μg/ml) to induce platelet aggregation.

[3] = tested on: platelet rich plasma (PRP); experiment: Collagen-induced platelet aggregation in platelet rich plasma (light aggregometry); type: cell-based, human; settings: 200 μM in PRP, collagen 5 μg/ml
Protocol: as §1, §2, §3, §4

[4] = tested on: platelet rich plasma (PRP); experiment: ADP-induced platelet aggregation in PRP; type: cell-based, human
Protocol: as §1, §2, §3, §4
1H-[1,2,4]Oxadiazolo[4,3-a]quinoxalin-1-one (ODQ, dissolved in 100% DMSO, used at a final concentration of 10 μM, which gave a final concentration not more than 0.25% DMSO) was preincubated with PRP or WP for 5 min in the aggregometer with stirring at 900 r.p.m. before the addition of test compounds (ST0701-05), which were incubated in PRP or WP for a further 10 min prior to the addition of an agonist (10 μM ADP or 5 μg/ml collagen) to induce platelet aggregation.
Eserine (10 μM) was incubated with PRP for 5 min in the aggregometer with stirring at 900 r.p.m. before the addition of test compound ST0702 salicylate (500 μM), which was incubated in PRP for a further 10 min prior to the addition of the agonist ADP (10 μM) to induce platelet aggregation.

[5] = tested on: 59M cells; experiment: Tumour cell-induced platelet aggregation (TCIPA), static conditions, 59M; type: cell-based, human; settings: static, WP, 300 and 500 μM, 59M 1×10^3/ml; listed as ISAS
From the text: ISAS meanwhile is hydrolysed to aspirin and salicylic acid. […] The structure of platelet-tumor cell aggregates was studied using phase-contrast microscopy (Alonso-Escolano et al., 2004; Jurasz et al., 2001). […] Aliquots of each sample were then taken for phase-contrast microscopy examination using an Olympus CKX41 microscope (Olympus America Inc., […].). Photomicrographs were captured using a digital camera and MicroFire (Olympus America Inc.) software (Alonso-Escolano et al., 2004; Jurasz et al., 2001).

[6] = tested on: P-selectin; experiment: Flow cytometry of platelet P-selectin during TCIPA induced by 59M cells; type: cell-based, human; settings: 300 μM
[7] = tested on: GPIIb/IIIa; experiment: Flow cytometry of activated GPIIb/IIIa on platelets after collagen stimulation; type: cell-based, human; settings: 60 μM
Protocol: (§5) In order to analyze receptor expression on the surface of individual platelets and to minimize platelet activation caused by sample preparation procedures, no stirring or vortexing steps were used. The abundance of activated GPIIb/IIIa and P-selectin on the surface of platelets in the presence and absence of inhibitors was measured by flow cytometry. Platelet samples were first activated with agonists either collagen or ADP. When platelet aggregation reached 50% maximal light transmission the reaction was terminated by 10-fold dilution with physiologic saline. Resting platelets were used as control. […] The activated GPIIb/IIIa platelet receptors were measured using PAC-1 monoclonal antibody at the same concentration as above. […] Following incubation, samples were diluted in FACS Flow fluid and analyzed within 5 min using a BD FACSArray (BD Biosciences, Oxford, UK). […] The instrument was set up to measure the size (forward scatter), granularity (side scatter) and cell fluorescence. […] Antibody binding was measured by analyzing individual platelets for fluorescence. The mean fluorescence intensity was determined after correction for cell autofluorescence. For each sample, the fluorescence was analyzed using a logarithmic scale. Fluorescence histograms were obtained for 10,000 individual events. […]

[8] = tested on: P-selectin; experiment: Flow cytometry of P-selectin on platelets after collagen stimulation; type: cell-based, human; settings: 60 μM
Protocol: as §5

[9] = tested on: HT1080 cells; experiment: Tumour cell-induced platelet aggregation (TCIPA), static conditions, HT1080; type: cell-based, human; settings: 500 μM
Protocol: Three human tumor cell lines, 59M ovarian adenocarcinoma, Caco-2 colon adenocarcinoma and HT1080 fibrocarcinoma cells, were obtained from the European Cell Culture Collection. Cell lines were cultured as monolayers in 75 ml culture flasks at 37° C. in a humidified atmosphere with 5% CO2. 59M cells and HT1080 were cultured in Dulbecco's […] (DMEM) supplemented with 10% fetal bovine serum (FBS) and gentamycin (0.05 mg/ml), penicillin (0.06 mg/ml), and streptomycin (0.01 mg/ml). Caco-2 cell line was cultured in Minimum Essential Medium (MEM) supplemented with 20% FBS and the same antibiotics as above. The cells were supplied with fresh medium and subcultured three times each week.
Washed platelet suspensions (2.5×10^11 platelets 1^−1) were prepared from blood an mixed with the anticoagulant sodium citrate (0.315% final concentration).
The interactions between platelets and tumor cells were measured by light aggregometry (Alonso-Escolano et al., 2004; Jurasz et al., 2001b; Radomski et al., 1991). Briefly, washed platelet samples (2.5×10^8/ml) were placed in an eight channel PAP 8 aggregometer (BIO/DATA CORPORATION, Horsham, Pa., U.S.A.) and incubated for 10 min at 37° C., with stirring at 900 r.p.m., prior to the addition of aggregating agents. […] TCIPA was initiated by the addition of cancer cells, and monitored by Aggro-Link software for at least 30 min. For experiments using inhibitors, aggregation was initiated after 10 min preincubation with these compounds.
To study the ability of the aspirin pro-drugs to inhibit TCIPA in WP cancer cell lines such as HT1080 cells (2×10^5/ml), CaCo2 cells (1.5×10^3/ml) or 59M cells (1×10^3/ml) were used in the presence or absence of aspirin nicotinate (ST0702), ISAS, orthonitrate and metanitrate at 300 and 500 μM. Platelet aggregation was initiated in washed platelets (WP) using HT1080 cells (2×10^5/ml), CaCo2 cells (1.5×10^3/ml) or 59M cells (1×10^3/ml). In addition, regular aspirin (300 and 500 uM) was used as control. Results were expressed in percent changes in maximal light transmission, with 100% representing light transmission of platelet medium alone. ST0702 is hydrolyzed by plasma esterases along two pathways liberating both aspirin and 5-nicotinate salicylate (ST0702 salicylate)(metabolite). The latter is further processed to isosorbide-5-nicotinate and eventually to nicotinic acid. The orthonitrate and metanitrate compounds liberate aspirin and nitric oxide (NO). ISAS meanwhile is hydrolysed to aspirin and salicylic acid. Aspirin (300 and 500 μM) was used in control experiments. Results were expressed in percent changes in maximal light transmission, with 100% representing light transmission of platelet medium alone. Further experiments were performed with ST0702 salicylate (500 μM).

[10] = tested on: 59M cells; experiment: Flow-mediated TCIPA using an ultrasound standing wave trap; type: cell-based, human; settings: 500 μM, 59M cell cluster
From the text: The ultrasound trap had three essential features: a transducer (Ferroperm, Kvistgard, Denmark) in a housing of radial symmetry, an aqueous phase and a reflector that provided optical access from above. The trap was driven with a function generator (Hewlett Packard 33120A, UK). Microscopic observation occurred with a fast, high-resolution XM10 camera (Soft Imaging System, SIS, GmbH) mounted on an Olympus BX51M reflection epi-fluorescence microscope. Images were captured by a standard PC equipped with the Cell-D image acquisition software (Soft Imaging System, SIS, GmbH).
The experimental procedure was as follows: 59M cells were introduced into the trap, the acoustic field (2.13 MHz, 0.85 MPa) was initiated and cell clusters were allowed to form. Clusters remained levitated in suspension for 10 min. Washed platelets (2.5×10^8/ml) were introduced into the trap at a flow rate of 3 μl/min. Perfusion of washed platelets around the cluster proceeded following initial adhesion of platelets to the periphery of the cluster.
To study the effect of aspirin and aspirin prodrugs in TCIPA, washed platelets were pre-incubated for 10 min at room temperature with the inhibitors: aspirin, nicotinate, ISAS, ISMNA, ortho and meta (all at a concentration of 500 μM), prior to their introduction into the ultrasound trap. […] The cell cluster-platelet aggregate remained under microscopic observation for further 10 min (the upper time limit established in the current study) under continuous flow conditions. Further experiments were performed with ST0702 salicylate (500 μM).

[11] = tested on: washed platelet samples; experiment: Collagen-induced platelet aggregation in the TCIPA studies (washed platelets); type: cell-based, human; settings: collagen 2 μg/ml (FIG. 16B)
[12] = In-vitro half life of the ST0702 metabolite; type: in vitro ADME
[13] = tested on: TCIPA; settings: at up to 3 mM

CC(=O)Oc1ccccc1C(=O)Oc1cccc(CO[N+](=O)[O-])c1 [NCX-4016]
inhibition of platelet aggregation in WP ([1]; NO and cGMP independent): inhibits platelet aggregation | inhibition of platelet aggregation in PRP [1]: does not inhibit platelet aggregation

CC(=O)Oc1ccccc1C(=O)OC1COC2C(OC(=O)c3ccccc3O)COC12 (stereo not shown) [ST0701, isosorbide-2-aspirinate-5-salicylate]
inhibitory actions in WP after addition of human BuChE purified from plasma ([2]; BuChE 3 U/ml, collagen 5 μg/ml): rescued | inhibition of collagen induced aggregation in WP ([2]; at 500 μM, collagen 5 μg/ml): 50% | IC50 ([2]; inhibition of platelet aggregation in response to collagen (5 (unit uncertain)), washed platelets): 200 µM | inhibition of aggregation at 2 min preincubation [3]: 40% | preincubation time at which inhibition is maximal [3]: 5 min | inhibition of ADP (10 μM) induced aggregation in PRP, comparison in words ([4]; ADP 10 μM, PRP): more efficacious than aspirin | effect of ODQ pretreatment on inhibition of ADP induced aggregation ([4]; ODQ 10 μM, compounds 100 μM, ADP 10 μM, PRP): increased the inhibition | inhibition of TCIPA induced by 59M [5]: able to inhibit; also recorded: inhibited | 59M-mediated increase in platelet surface P-selectin [6]: failed to prevent | activation of GPIIb/IIIa in PRP [7]: significantly suppressed | translocation of P-selectin in PRP ([8]; PRP): significantly suppressed | translocation of P-selectin in WP ([8]; WP): not in WP

O=C(O[C@@H]1CO[C@H]2[C@@H]1OC[C@@H]2OC(=O)c1ccccc1O)c1cccnc1 [ST0702 salicylate, isosorbide-2-salicylate-5-nicotinate]
inhibition of ADP-induced aggregation in PRP ([4]; 500 μM, ADP 10 μM): inhibited ADP-induced aggregation | inhibition of ADP-induced aggregation in PRP in the presence of eserine ([4]; 500 μM, eserine 10 μM): became significant | inhibition of TCIPA in response to HT1080, no flow [9]: inhibit TCIPA | inhibition of TCIPA under flow conditions (platelet-tumour cell disruption) [10]: did not inhibit TCIPA under flow conditions | inhibition of collagen-induced platelet aggregation [11]: did not inhibit collagen-induced platelet aggregation | half life in-vitro [12]: very short

O=C(OC1COC2C(O)COC12)c1cccnc1 (stereo not shown) [isosorbide-5-nicotinate]
inhibition of TCIPA [13]: did not inhibit TCIPA

O=C(O)c1cccnc1 [nicotinic acid, reference compound]
inhibition of TCIPA [13]: did not inhibit TCIPA
